Reference: ChEMBL document CHEMBL5131556, “Ibogaine and Their Analogs as Therapeutics for Neurological and Psychiatric Disorders” (ACS Med Chem Lett, 2022)

How the values were obtained:
[1] = molecular target: Synaptic vesicular amine transporter (Rattus norvegicus, UniProt Q01827); assay: Inhibition of rat VMAT2 transfected in HEK cells using FFN206 as fluorescent substrate preincubated for 1 hr followed by substrate addition and measured after 30 mins by fluorescence plate reader assay; assay type: cell-based
Chain of Synaptic vesicular amine transporter (Q01827 whole entry): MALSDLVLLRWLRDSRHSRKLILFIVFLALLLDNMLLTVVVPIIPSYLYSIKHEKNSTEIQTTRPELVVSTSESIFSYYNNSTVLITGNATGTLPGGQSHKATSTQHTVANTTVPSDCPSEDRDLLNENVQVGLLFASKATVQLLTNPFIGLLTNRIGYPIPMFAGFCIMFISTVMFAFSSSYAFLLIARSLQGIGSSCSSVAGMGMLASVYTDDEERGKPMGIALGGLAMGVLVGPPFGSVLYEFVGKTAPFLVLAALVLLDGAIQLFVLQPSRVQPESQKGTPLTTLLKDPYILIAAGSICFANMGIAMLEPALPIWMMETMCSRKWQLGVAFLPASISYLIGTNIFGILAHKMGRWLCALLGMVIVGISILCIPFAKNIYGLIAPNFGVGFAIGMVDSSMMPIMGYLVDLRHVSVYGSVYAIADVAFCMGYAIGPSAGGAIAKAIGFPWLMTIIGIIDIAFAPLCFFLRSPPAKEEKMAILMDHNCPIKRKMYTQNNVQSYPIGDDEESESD

[2] = molecular target: Sodium-dependent serotonin transporter (Homo sapiens, UniProt P31645); assay: Inhibition of human SERT transfected in HEK cells using APP+ as fluorescent substrate preincubated for 1 hr followed by substrate addition and measured after 30 mins by fluorescence plate reader assay; assay type: cell-based
Chain of Sodium-dependent serotonin transporter (P31645 whole entry): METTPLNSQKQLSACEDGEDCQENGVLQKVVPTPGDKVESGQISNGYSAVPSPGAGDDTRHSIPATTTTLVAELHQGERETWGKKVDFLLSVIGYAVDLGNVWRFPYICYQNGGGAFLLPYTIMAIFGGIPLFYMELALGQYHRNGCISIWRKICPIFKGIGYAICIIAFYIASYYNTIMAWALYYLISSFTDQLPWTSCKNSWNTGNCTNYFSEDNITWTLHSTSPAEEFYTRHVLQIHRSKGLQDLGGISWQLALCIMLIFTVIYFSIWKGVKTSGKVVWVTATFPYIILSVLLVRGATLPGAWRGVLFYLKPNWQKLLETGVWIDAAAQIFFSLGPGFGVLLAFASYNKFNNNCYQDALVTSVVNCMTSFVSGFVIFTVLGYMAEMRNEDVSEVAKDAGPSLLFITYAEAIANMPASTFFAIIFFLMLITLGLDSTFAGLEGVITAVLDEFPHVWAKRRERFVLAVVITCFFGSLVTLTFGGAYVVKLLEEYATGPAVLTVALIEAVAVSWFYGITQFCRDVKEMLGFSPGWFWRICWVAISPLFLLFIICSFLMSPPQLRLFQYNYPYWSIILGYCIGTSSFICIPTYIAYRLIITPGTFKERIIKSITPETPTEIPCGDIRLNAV

SMILES | IC50 [1] | IC50 [2]
CC[C@H]1C[C@@H]2C[C@H]3c4[nH]c5ccc(OC)cc5c4CCN(C2)[C@@H]13 | 4000 nM | –
CCc1ccc2c(c1)c1c(n2C)[C@@H]2C[C@H]3C[C@H](CC)[C@@H]2N(CC1)C3 | 750 nM | 910 nM
CC[C@H]1C[C@@H]2C[C@H]3c4c(c5cc(O)ccc5n4C)CCN(C2)[C@@H]13 | 170 nM | 59 nM
CC[C@H]1C[C@@H]2C[C@H]3c4c(c5cc(O)ccc5n4CC)CCN(C2)[C@@H]13 | 70 nM | 1900 nM
CC[C@H]1C[C@@H]2C[C@H]3c4[nH]c5ccc(C#N)cc5c4CCN(C2)[C@@H]13 | 3300 nM | 26 nM
CCOc1ccc2[nH]c3c(c2c1)CCN1C[C@@H]2C[C@H](CC)[C@H]1[C@H]3C2 | 80 nM | 9000 nM
CC[C@H]1C[C@@H]2CC3c4[nH]c5ccc(O)cc5c4CCN(C2)[C@H]31 | 570 nM | –
CC[C@H]1C[C@@H]2C[C@H]3c4c(c5cc(OC)ccc5n4C)CCN(C2)[C@@H]13 | 740 nM | 1500 nM
CC[C@H]1C[C@@H]2C[C@H]3c4[nH]c5ccccc5c4CCN(C2)[C@@H]13 | 3000 nM | 330 nM
CC[C@H]1C[C@@H]2C[C@H]3c4[nH]c5ccc(OC)c(Br)c5c4CCN(C2)[C@@H]13 | 4900 nM | 670 nM
CC[C@H]1C[C@@H]2C[C@H]3c4c(c5ccccc5n4C)CCN(C2)[C@@H]13 | 1500 nM | 80 nM
CC[C@H]1C[C@@H]2C[C@H]3c4c(c5cc(C#N)ccc5n4C)CCN(C2)[C@@H]13 | 440 nM | 5.1 nM
